Laboratory results from US20230303577A1, “TEMOZOLOMIDE ANALOGS AND METHODS OF USE” (St. John's Cancer Institute, priority 2020, published 2023).
Read-outs that look alike come from different tables or passages of the source.

What was measured:
Caco-2 = test: Bidirectional Caco-2 permeability / P-gp efflux assay; format: in vitro ADME; details: human, Caco-2
Description: (§1) Permeability of the compounds was evaluated in the bidirectional Caco-2 assay including identification of P-glycoprotein substrate (Pgp-mediated transport). Verapamil was used as a p-gp inhibitor. The apparent permeability (Papp) was calculated using the following equation:
(§2) Papp=VA/Area×Time×[drug]acc/[drug]initial,d
(§3) Permeability of the compounds was evaluated in the bidirectional Caco-2 assay as described in Example 11 (Table 15).

P-gp = test: as above; format: in vitro ADME; details: human
Description: as §1, §2, §3

[1] = Metabolic stability in mouse liver microsomes; format: in vitro ADME
Description: Metabolic stability of the compounds was also determined in mouse liver microsomes at five time points over 60 minutes, using HPLC-MS. Liver microsomes, as vesicles of the hepatocyte endoplasmic reticulum, contain membrane phase I enzymes namely CYPs, flavine-containing monooxygenases (FMO), esterases, amidases, and epoxide hydrolases, and also the phase II enzymes such as UGTs. For the catalytic activity of both phase I and II enzymes, addition of exogenous cofactors such as NADPH for CYPs and FMO, and UDPGA/alamethicin for UGTs is necessary.

T98G cells = test: Cell Titer Glo viability of T98G cells with or without O6-BG pretreatment; format: cell-based
Description: T98G cells, which express MGMT, were treated with TMZ or test compounds with or without 3, 6, or 24 hours of pretreatment with 100 μM of O^6-benzylguanine (O^6-BG; a pseudo-substrate of MGMT that quenches the cellular store of enzyme). T98G cell lysates were probed with anti-MGMT antibody and then with anti-a tubulin (FIG. 4). In a separate experiment, TMZ or test compounds were added to T98G cells with or without 5-6 hours of pretreatment with 100 μM O^6-BG. Cell viability was measured using the Cell Titer Glo assay after 3 days of incubation and IC50 values were determined (Table 3).

[2] = Aqueous chemical stability (HPLC-MS); format: physicochemical
Description: Detection of products of non-enzymatic cleavage (AIC-TMZ, AIC-TP3, AIC-TP5, and AIC-TP9) was performed (Table 4; FIGS. 5A-5D).

[3] = BBB permeability, cassette intravenous dosing; format: in vivo, male CD-1 mice; details: cassette IV 5 mg/kg; for concentration at 5 min: 10% DMSO in PBS
Description: BBB permeability of the compounds was tested in male CD-1@IGS mice using cassette intravenous dosing (Table 7 and FIGS. 6A and 6B). There were three animals in each group, given a dose of 5 mg/kg formulated in 10% DMSO in PBS (v/v) for 5 minutes. The endpoint was quantifying the parent compound using LC-MS/MS. Plasma samples (50 μl) were immediately mixed with 25 μl of H3PO4 (8.5%). Then 225 μl of internal standard (IS; 400 ng/ml meldonium in methanol) was added. After mixing by pipetting and centrifuging for 4 min at 6000 rpm, 2 μl of each supernatant was injected into LC-MS/MS system. Brain samples (100 mg±1 mg) were immediately mixed with 100 μl H3PO4 (25%) and zirconium oxide beads (115 mg±5 mg). Then 400 μl of IS solution was added and samples were disperse using a bullet blender homogenizer for 30 seconds at speed 8. The samples were centrifuged for 4 min at 14,000 rpm and 2 μl of each supernatant was injected into LC-MS/MS system.

U87 = test: cells; details: read-out: IC50, 72 h
Description: (§4) The effect of selected compounds on glioma cells viability was determined. The cells were plated at 2000 cells/well in 96 well plates. The day after, cells were treated with various concentrations of temozolomide or VMY-TP analogs.
(§5) Activity of TP-RGD was assessed in glioma cell cultures, as described in Example 11.

U251 [4] = test: cells; details: read-out: IC50, 72 h
Description: as §4, §5

T98G = test: cells
Description: as §4, §5

GBM8 = test: AlamarBlue cell viability, GBM8 patient-derived cell line; format: cell-based; details: 72 h, read-out: IC50, 72 h
Description: as §4

U251 [5] = details: read-out: IC50 U251 cell proliferation (BrdU ELISA); 72 hours of treatment
Description: U87 cells were seeded at the density of 2,000 cells/well in 96-well plates and incubated overnight. The day after, cells were treated with various concentrations of Temozolomide or analogs for 72 hours. The BrdU ELISA proliferation assay was performed according to the manufacturer's instructions (Roche, #11647229001). Briefly, 20 μl of diluted BrdU labelling reagent was added to each well, to a final concentration of 10 μM BrdU per well. The cells were then incubated at 37° C. for 24 hours. Following this incubation, the labeling medium was aspirated from each well and 200 μl of Roche FixDenat fixing buffer was added. The plates were then incubated at 25° C. for 30 minutes. The fixing solution was removed, and 100 μl of Anti-BrdU-POD antibody was added to each well and incubated again at 25° C. for 90 minutes. Wells were rinsed three times with 200 μl of PBS, then 100 μl of Roche Substrate solution was added to each well. Following a 25 minute incubation at room temperature, the absorbance of each plate was read at 370 nm (reference wavelength: approx. 492 nm) on a Spectramax® i3x microplate reader.
The effect on U251 cell proliferation after 72 hours of treatment was also assessed using the BrdU ELISA cell proliferation assay as described in Example 11.

[6] = for % decomp.: AIC formation, pH>7.4, 60° C.; for % SM: phosphate buffer pH>7.4, 60° C.
Description: 2 mg of TP-RGD was dissolved in 0.8 mL of phosphate buffer at pH>7.4. […] Then the reaction temperature was increased to 60° C. and incubated for 4 h. During the period of incubation, the reaction was monitored for every 30 min by LC-MS. Measure the AIC formation (% decomp) over the time.

A172 = test: cells; details: read-out: IC50, 72 h; A172, MGMT −, Table 14
Description: as §4, §5

P-glycoprotein (P-gp) = test: Bidirectional Caco-2 permeability / P-gp efflux assay; format: in vitro ADME; details: human; Caco-2 permeability; P-gp efflux ratio, Table 15
Description: as §1, §2, §3

In the case of `C[C@H]1O[C@@H](O[C@H]2[C@@H](O)C[C@H](O[C@H]3[C@@H](O)C[C@H](O[C@H]4CC[C@@]5(C)[C@H](CC[C@@H]6[C@@H]5C[C@@H](O)[C@]5(C)[C@@H](C7=CC(=O)OC7)CC[C@]65O)C4)O[C@@H]3C)O[C@@H]2C)C[C@H](O)[C@@H]1O` [Digoxin], the “Efflux Ratio BA/AB p-gp Inhibitor (+)” value (Caco-2) is reported as 1.0, the “Papp (AB) p-gp Inhibitor (+)” value (Caco-2) is reported as 5.9 10^−6 cm/s and the “Papp (BA) p-gp Inhibitor (+)” value (Caco-2) is reported as 6.1 10^−6 cm/s. It also gave a Papp A→B (P-gp; Caco-2) of 1.2 ×10⁻⁶ cm/s, a Papp B→A (P-gp; Caco-2) of 15.8 ×10⁻⁶ cm/s and an efflux ratio (P-gp; Caco-2, Efflux Ratio BA/AB p-gp Inhibitor (−)) of 13.6.

In the case of `Cn1nnc2c(C(=O)NC3CCCCC3)ncn2c1=O` [TP5, N-cyclohexyl-3-methyl-4-oxo-3,4-dihydroimidazo[5,1-d][1,2,3,5]tetrazine-8-carboxamide], the “Clearance Classification (Low <8.6; High >48)” value [1] is reported as “Moderate”, the microsomal CLint ([1]; mouse, liver microsomes, read-out: Intrinsic clearance (Clint)) is reported as 25 µL/min/mg and the “% remaining (1 h) With co-factors” value ([1]; with co-factors) is reported as 49%. For the same molecule, the “% remaining (1 h) Without co-factors” value ([1]; without co-factors) was 94%, the IC50 (T98G cells; Homo sapiens, read-out: IC50 With O^6-BG pretreatment) was 168 µM and the IC50 (T98G cells; Homo sapiens, read-out: IC50 Without O^6-BG pretreatment) was 410 µM. For the same molecule, the half-life at 1 μM ([2]; 0.1 M phosphate buffer pH 7.0) was > 2 h, the half-life at 1 μM ([2]; 0.1 M phosphate buffer pH 8.0) was 0.667 h and the half-life at 1 μM ([2]; PBS pH 7.4) was 1.15 h. The “% Brain” value ([3]; 5 min) was 25%, the “% Plasma” value ([3]; 5 min) was 75% and the concentration at 5 min ([3]; male, CD-1, mouse, brain, read-out: Brain Conc.) was 3050 ng/g. For the same molecule, the Kp at 5 min ([3]; male, CD-1, mouse, brain/plasma) was 0.99, the concentration at 5 min ([3]; male, CD-1, mouse, plasma, read-out: Plasma Conc) was 3120 ng/mL and the IC50 (U87; Homo sapiens, U-87 MG, 72 h) was 168 µM. For the same molecule, the IC50 (U251 [4]; Homo sapiens, U-251, 72 h) was 139 µM, the IC50 (T98G; Homo sapiens, 72 h, read-out: IC50, 72 h) was 581 µM and the IC50 (GBM8) was 28 µM. For the same molecule, the efflux ratio (P-gp; Caco-2, without verapamil, read-out: Efflux Ratio BA/AB p-gp Inhibitor (−)) was 0.9, the Papp A→B (P-gp; Caco-2, without verapamil, read-out: Papp (AB) p-gp Inhibitor (−)) was 26.6 ×10⁻⁶ cm/s and the Papp B→A (P-gp; Caco-2, without verapamil, read-out: Papp (BA) p-gp Inhibitor (−)) was 24.3 ×10⁻⁶ cm/s.

With `Cn1nnc2c(C(=O)NCCCC[C@@H]3NC(=O)[C@@H](Cc4ccc(O)cc4)NC(=O)[C@H](CC(=O)O)NC(=O)CNC(=O)[C@H](CCCNC(=N)N)NC3=O)ncn2c1=O` [TP-RGD] the IC50 (U251 [5]) was 70.2 µM, the “% decomp.” value ([6]; 0.5 h) was 0% and the “% decomp.” value ([6]; 1 h) was 18.2%. For the same molecule, the “% decomp.” value ([6]; 1.5 h) was 33.9%, the “% decomp.” value ([6]; 2 h) was 53.5% and the “% decomp.” value ([6]; 2.5 h) was 56.8%. The “% decomp.” value ([6]; 3 h) was 61.6%, the “% decomp.” value ([6]; 4 h) was 94.7% and the “% decomp.” value ([6]; 4.5 h) was 94.7%. The “% SM” value ([6]; 1 h) was 81.8%, the “% SM” value ([6]; 1.5 h) was 65.5% and the “% SM” value ([6]; 2 h) was 45.9%. The “% SM” value ([6]; 2.5 h) was 39.3%, the “% SM” value ([6]; 3 h) was 27.4% and the “% SM” value ([6]; 4 h) was 2.3%. For the same molecule, the “% SM” value ([6]; 4.5 h) was 2.3%, the “product formation (hydrolysis)” value ([6]; phosphate buffer pH>7.4, room temperature) was “no product formation” and the IC50 (U87; U87MG, MGMT −, Table 14) was > 100 µM. For the same molecule, the IC50 (U251 [4]; U251, MGMT −, Table 14) was 0.306 µM, the IC50 (T98G; read-out: IC50, 72 h, MGMT +++, Table 14) was 0.254 µM and the IC50 (A172) was 0.383 µM. The efflux ratio (P-glycoprotein (P-gp)) was 0.57.

Work on `O[C@H]([C@H](O)[C@@H]1CO1)[C@H]1CO1` [VAL-083, reference compound] yielded an IC50 (T98G cells; 5-6 h pretreatment with 100 μM O6-BG, 3 days, read-out: IC50 With O^6-BG pretreatment) of 71 µM and an IC50 (T98G cells; 3 days, read-out: IC50 Without O^6-BG pretreatment) of 108 µM.

`CC[C@]1(O)C[C@@H]2CN(CCc3c([nH]c4ccccc34)[C@@](C(=O)OC)(c3cc4c(cc3OC)N(C)[C@H]3[C@@](O)(C(=O)OC)[C@H](OC(C)=O)[C@]5(CC)C=CCN6CC[C@]43[C@@H]65)C2)C1` [Vinblastine] showed an efflux ratio (P-gp; Caco-2, Efflux Ratio) of 21.7.
